The source of these data is patent US20240000820A1, “A METHOD OF TREATING FOOT ROT” (Intervet Inc., priority 2020, published 2024).

For data set [1], the system named is naturally occurring foot rot. As to the kind of experiment: Efficacy of a single subcutaneous dose against naturally occurring foot rot in feedlot cattle (lameness and lesion scoring). The conditions noted are these: for average lameness score: score guide 1-5 (Table 1); for average lesion score: score guide 1-5 (Table 2). The data set is classed as in vivo, bovine animals. Here is the method: (§1) Thirty animals were enrolled to the Control Group and another thirty animals were enrolled in the Tildipirosin treated Group. The tildipirosin-treated group received a single dose, subcutaneously, while the control group was treated with a saline sterile solution. Both groups (treated and control) were housed in the same paddocks under typical Brazilian feedlot conditions.
Sixty animals were included in the trial in two different phases, according to the number of available animals that fulfill the inclusion criteria. The study was masked. […] The animals were randomized and evenly distributed across the treatment groups according to 15 blocks of 2 animals each in both inclusion dates (there were 2 inclusion dates, for a total of 60 animals).
The effectiveness of tildipirosin for the treatment of foot rot was evaluated by comparing the proportion of treatment success/improvement in the tildipirosin-treated group to the saline-treated control group on Day 7.
The lameness and the lesion scoring are described in Tables 1 and 2 below.
The animals' lesion and lameness score were assessed by the investigator on Days −1 and 0 of the study. To qualify for the effectiveness portion of the study, animals were diagnosed with foot rot by meeting the following criteria: • Lameness Score 3 in at least one foot for 2 consecutive days. • Lesion Score 2 in at least one foot for 2 consecutive days. • Clinically healthy (excepting lameness) • Body weight (348-499 kg body weight) • Age (20-24 months)
On Day 0, before treatment, bacteriological samples were collected from the infected hooves of the enrolled cattle. Lesions and lameness were also assessed on Days 2, 4 and 7. Treatment success, improvement, or failure was determined on Day 7 and was based on lameness and lesion score compared to Day 0. On Day 7, another bacteriological sample was collected from all animals.

Data set [2] is described as follows: Health observations and adverse events in the foot rot study. It counts as in vivo, bovine animals. Here is the method:
as §1

Data set [3] has as its system Fusobacterium necrophorum. Kind of data set: Bacterial evaluation of hoof lesion samples (culture, biochemical tests and PCR) before treatment and on Day 7. The data set is classed as in vivo. The conditions noted are these: Day 0 vs Day 7, in comparison to the control group.
Procedure: On Day 0, before treatment, bacteriological samples were collected from the infected hooves of the enrolled cattle. Lesions and lameness were also assessed on Days 2, 4 and 7. Treatment success, improvement, or failure was determined on Day 7 and was based on lameness and lesion score compared to Day 0. On Day 7, another bacteriological sample was collected from all animals. Bacteriological samples were collected on a sterile scraper and on a sterile swab from the border of healthy and necrotic tissue (around the hoof lesion) of the infected hooves of the enrolled cattle. The tip of the scraper, containing discharge from the lesions, was fractured off into 15 ml tubes containing 7 ml of a semi solid transport media formulated exclusively to anaerobic bacteria and the swab was discharged in a semi solid transport. The tubes were kept under refrigeration (4 to 8° C.) until they arrive into the laboratory. At the laboratory, the samples grew in culture media appropriated to F. necrophorum and Dichelobacter nodosus isolation. Isolates were identified using confirmatory biochemical tests and polymerase chain reaction (PCR) specific to F. necrophorum and D. nodosus species.
Setting [4] is: Day 0, before treatment, treated group.
The mark [5] stands for this setting: Day 7 after single subcutaneous dose of 4 mg/kg BW.

For the compound `CC[C@H]1OC(=O)C[C@@H](O)[C@H](C)[C@@H](O[C@@H]2O[C@H](C)[C@@H](O)[C@H](N(C)C)[C@H]2O)[C@@H](CCN2CCCCC2)C[C@@H](C)C(=O)/C=C/C(C)=C/[C@@H]1CN1CCCCC1` [tildipirosin, (4R,5S,6S,7R,9R,11E,13E,15R,16R)-6-[(2R,3R,4S,5S,6R)-4-(dimethylamino)-3,5-dihydroxy-6-methyloxan-2-yl]oxy-16-ethyl-4-hydroxy-5,9,13-trimethyl-7-(2-piperidin-1-ylethyl)-15-(piperidin-1-ylmethyl)-1-oxacyclohexadeca-11,13-diene-2,10-dione], the values for the average lameness score in data set [1] (setting [4]) and in data set [1] (setting [5]) were 3.1 and 1.3, respectively. Moreover, the average lesion score came out at 2.3 in data set [1] (setting [4]) and 1.9 in data set [1] (setting [5]). The “treatment of naturally occurring foot rot” value in data set [1] (single subcutaneous dose of 4 mg of tildipirosin per kg BW) is given as “effectively treat”. Besides, the abnormal health observations result in data set [2] (before or after treatment, single subcutaneous dose 4 mg/kg BW) is recorded as “no abnormal health observations”. Further, the “adverse event (broken toenail on Day 7, one animal), relation to treatment” value in data set [2] (tildipirosin-treated group, according to the investigator) is given as “not related to the tildipirosin treatment”. The “bacterial evaluation (PCR identification of Fusobacterium necrophorum before vs after treatment)” value in data set [3] is recorded as “not conclusive”.
